Assays:
[1] = system: ovarian cancer-induced cachexia; experiment: Grip strength, tumor-free and tumor-bearing mice (Example 2); format: in vivo; conditions: terminal week
Method: Grip Strength Measurements: Before assessment, mice were weighed on a commercially available digital scale. Forepaw and total grip strength of mice were measured using a digital grip strength meter (Columbus Instruments, Columbus, Ohio, USA) and then normalized by total body weight. Before the beginning of the test, the mice were acclimatized for five minutes. The mouse was allowed to grasp the total paw pull-bar assembly, and in a separate experiment the forepaw pull-bar assembly. The mouse was then gently drawn with constant force in a straight line away from the device until the mouse could no longer grasp the bar. Force at time of release was recorded as the peak tension. Each mouse was tested five times with a delay of 20-40 seconds between each testing. The mean peak tension was calculated from the recordings normalized by total body weight.
Grip Strength Measurements: as in Example 1.

[2] = system: TA muscle myofibers (MyHC I, IIa, IIb); experiment: Skeletal muscle fiber-type immunostaining; format: in vivo, mice
Method: Skeletal Muscle Fiber-type Immunostaining: To determine the composition of different types and gross composition of skeletal muscle fibers, 10 μm thick transverse sections were made from TA muscles, a hydrophobic boundary was drawn around the section, and then blocked with 5% goat serum and 2% bovine serum albumin (BSA) in PBS for 30 minutes. The sections were then incubated for one hour with monoclonal antibodies against myosin heavy chain (MyHC) isoforms type I, IIa, and IIb using clone BA-D5, […], and BF-F3, respectively (Developmental Studies Hybridoma Bank, Iowa City, Iowa, USA). The following secondary antibodies were then used for detection after 1-2 hours of incubation period: anti-Mouse IgG2b (γ2b) CF™ 350 antibody produced in goat, anti-Mouse IgG1 (yl) CF™ 568 antibody produced in goat, and Alexa Fluor-488 goat anti-mouse IgM. Fluorescence images were captured with a Nikon TiE 3000 inverted microscope, the single-color channels were merged, and percentage of each fiber-type in whole muscle section was recorded. Nonspecific background staining was performed using the above protocol but omitting the inclusion of the primary antibodies. Antibodies BA-D5, SC-71, and BF-F3 were deposited to the DSHB by Schiaffino, S. (DSHB Hybridoma Product BA-D5, SC-71, and BF-F3).

[3] = system: Tn-I, AT2R and pro-inflammatory cytokines in the heart; experiment: qPCR of heart; format: in vivo, Mus musculus; conditions: for relative transcript level of AT2R in the heart: compared to control
Method: Total RNA Extraction and qPCR: Isolation of total RNA from xenografted tumor samples was performed using an RNeasy® Mini Kit (Qiagen Catalog #74104) according to the manufacturer's instructions. Isolation of total RNA from skeletal muscle was performed using an RNeasy® Fibrous Tissue Mini Kit (Qiagen Catalog #74704) according to the manufacturer's instructions. First strand cDNA was synthesized using 1 μg of purified RNA and a commercially available kit (iScript™ cDNA synthesis, Bio-Rad Catalog #170-8891), Quantification of mRNA expression was performed similar to as previously described (Hindi and Kumar, 2016) using the SYBR Green dye method on a StepOnePlus™ system (Applied Biosystems) using gene-specific primers, as shown in Table 1.
Isolation and preparation of total RNA was performed as described in Example 1.

[4] = system: TNFα, IFNγ, IL-6, IL-8, IL-18 in tumor samples; experiment: Human MAP multiplex assay of tumor samples; format: in vivo; conditions: vs vehicle treated group
Text: Samples were minced on ice with sterilized scissors.

[5] = Body and organ weight, A2780 xenograft mice (Example 1); conditions: for BW Week 2 / BW Week 3 / BW Week 1 / Initial BW / Kidney weight normalized / Liver weight normalized / Spleen weight normalized: tumor-bearing; for Initial BW: baseline, before treatment
TA, GA and QF muscles [6] = experiment: Muscle mass and TA myofiber CSA (Example 2); format: in vivo, mice
Text: Histology and Morphometric Analysis of Skeletal Muscle: Select muscles of the lower limb of the mice were isolated, flash frozen in liquid nitrogen, mounted in O.C.T. embedding medium, and then sectioned using a microtome cryostat. To assess tissue morphology, 10 μm thick transverse sections were cut from the mid-belly of the tibialis anterior (TA) and then subjected to Hematoxylin and Eosin (H&E) staining. Images of H&E-stained TA muscle sections were quantified using Fiji software (National Institute of Health software) to measure myofiber cross-sectional area (CSA). Skeletal myofiber CSA was calculated by analyzing ˜500-700 myofibers per muscle as previously described (32).
Post-mortem, select muscles of the lower extremities, including tibialis anterior (TA), gastrocnemius (GA), and quadriceps femoris (QF), were collected and weighed to detect changes in muscle mass, with results shown in FIG. 14A-14C, respectively. Muscle weights were normalized by the initial body weight (I.B.W.) to account for differences in the size of the mouse/muscle at baseline, while excluding the confounding effect of tumor burden on body weight.

TA, GA and QF muscles [7] = experiment: Skeletal muscle weight and myofiber CSA (Example 1); format: in vivo, mice
Text: Histology and Morphometric Analysis of Skeletal Muscle: The tibialis anterior (TA), gastrocnemius (GA) and quadriceps femoris (QF) of the mice were isolated, flash frozen in liquid nitrogen, mounted in OCT embedding medium, and then sectioned using a microtome cryostat. To assess tissue morphology, 10 μm thick transverse sections were cut from the mid-belly of the muscle and then subjected to hematoxylin and eosin (H&E) staining. Images of H&E-stained TA/GA/QF muscle sections were quantified using Image J and/or Fiji software to measure myofiber cross-sectional area (CSA). Myofiber CSA was calculated by analyzing ˜350-500 myofibers per muscle.

[8] = WFA 2 mg/kg IP every three days
[9] = WFA 6 mg/kg IP every three days
[10] = 2 and 6 mg/kg, vs control group
[11] = 2 and 6 mg/kg, vs vehicle treated group

CC1=C(CO)C(=O)O[C@@H]([C@@H](C)[C@H]2CC[C@H]3[C@@H]4C[C@H]5O[C@]56[C@@H](O)C=CC(=O)[C@]6(C)[C@H]4CC[C@]23C)C1 [WFA, (4β,5β,6β,22R)-4,27-Dihydroxy-5,6:22,26-diepoxyergosta-2,24-diene-1,26-dione]
forelimb and total grip strengths ([1]; tumor-bearing mice, 2 and 4 mg/kg, vs tumor-bearing vehicle): significantly increased compared to the tumor-bearing vehicle-treated | total grip strength ([1]; tumor-free mice, 4 mg/kg, vs tumor-free vehicle): significantly improved the total grip strength of the tumor-free mice | forelimb grip strength ([1]; tumor-free mice, 2 and 4 mg/kg, vs tumor-free vehicle): significantly improved the forelimb grip strength of tumor-free mice | proportion of Type IIb myofibers in TA muscle ([2]; 2 and 6 mg/kg, vs control and vehicle treated groups): significantly reduced in the WFA treated groups in a dose-dependent manner | percentage of Type IIa myofibers in TA muscle ([2]; 2 and 6 mg/kg, vs vehicle treated and control groups): significant increase in Type IIa myofibers | percentage of Type I myofibers in TA muscle ([2]; all groups): no significant differences were found | percentage of Type IIx myofibers in TA muscle ([2]; all groups): no significant differences were elucidated upon post hoc analysis | relative transcript levels of TNFα, IL-6, MIP-2, IFNγ in the heart ([3]; tumor-bearing WFA-treated groups): significantly reduced in the WFA-treated groups | transcript levels of IFNγ in the heart ([3]; tumor-bearing WFA-treated groups, normalized to tumor-bearing vehicle): significantly reduced in the WFA-treated groups | relative transcript level of AT2R in the heart ([3]; tumor-bearing, WFA 2 mg/kg): 3.5±1.8 fold | relative transcript level of AT2R in the heart ([3]; tumor-bearing, WFA 4 mg/kg): 5.2±3.2 fold | reduction in relative transcript levels of Troponin-I (Tn-I) in heart ([3]; tumor-bearing, both doses, vs tumor-bearing vehicle): significantly blunted | cytokine levels of IL-18 in tumor (multiplex) ([4]; 2 and 6 mg/kg): significant reduction in the cytokine levels of IL-18 | levels of TNFα, IFNγ, IL-6, IL-8 in tumor (multiplex) ([4]; high dose (6 mg/kg)): mixed result of up- and downregulation of proinflammatory cytokines | levels of TNFα, IFNγ, IL-6, IL-8 in tumor (multiplex) ([4]; low dose (2 mg/kg)): significantly reduced the expression of all proinflammatory cytokines tested | body weight fold change ([5]; 2 and 6 mg/kg, at termination of study, all groups compared): No statistically significant difference between the groups | BW Week 2 [5, 8]: 20.43 ± 2.43 g | BW Week 3 [5, 8]: 22.68 ± 2.53 g | BW Week 1 ([5]; WFA 2 mg/kg group): 19.98 ± 2.33 g | Initial BW ([5]; WFA 2 mg/kg group): 19.14 ± 1.50 g | Kidney weight normalized ([5]; WFA 2 mg/kg): 4.95 ± 0.79 mg/g | Liver weight normalized ([5]; WFA 2 mg/kg): 47.16 ± 15.88 mg/g | Spleen weight normalized ([5]; WFA 2 mg/kg): 2.20 ± 1.74 mg/g | BW Week 2 [5, 9]: 21.37 ± 1.32 g | BW Week 3 [5, 9]: 23.57 ± 1.23 g | BW Week 1 ([5]; WFA 6 mg/kg group): 20.70 ± 1.35 g | Initial BW ([5]; WFA 6 mg/kg group): 19.60 ± 0.76 g | Kidney weight normalized ([5]; WFA 6 mg/kg): 5.45 ± 0.49 mg/g | Liver weight normalized ([5]; WFA 6 mg/kg): 41.18 ± 3.60 mg/g | Spleen weight normalized ([5]; WFA 6 mg/kg): 2.78 ± 1.45 mg/g | normalized wet weight of TA and GA muscles (TA, GA and QF muscles [6]; tumor-bearing, 2 and 4 mg/kg, vs vehicle-treated): statistically significant increase in normalized wet weight of the TA and GA muscles | average myofibrillar cross-sectional area (CSA) in TA muscle (TA, GA and QF muscles [6]; tumor-bearing, WFA 2 mg/kg): 1629.72±94.96 μm2 | average myofibrillar cross-sectional area (CSA) in TA muscle (TA, GA and QF muscles [6]; tumor-bearing, WFA 4 mg/kg): 1748.13±68.90 μm2 | normalized weight of TA, GA and QF muscles (TA, GA and QF muscles [6]; tumor-free, 4 mg/kg, vs vehicle-treated, normalized by initial body weight): significant increase in normalized weight of the TA, GA, and QF muscles | average myofibrillar cross-sectional area (CSA) in TA muscle (TA, GA and QF muscles [6]; tumor-free, WFA 2 mg/kg): 1916.39±85.72 μm2 | average myofibrillar cross-sectional area (CSA) in TA muscle (TA, GA and QF muscles [6]; tumor-free, WFA 4 mg/kg): 1904.98±80.50 μm^2 | normalized wet weight of gastrocnemius (GA) (TA, GA and QF muscles [7]; 2 mg/kg, vs control group): significant reduction in normalized wet weight | myofibrillar CSA in GA muscle (TA, GA and QF muscles [7]; 2 mg/kg, vs control group (p=0.09)): restoration of myofibrillar CSA | wet weight of quadriceps femoris (QF) (TA, GA and QF muscles [7]; 6 mg/kg, vs control group): significant reduction in wet weight | restoration of myofibrillar CSA in GA muscle (TA, GA and QF muscles [7]; 6 mg/kg, vs control group (p=0.007)): not those treated with 6 mg/kg of WFA | average myofiber CSA (TA and QF) (TA, GA and QF muscles [7]; [10]): significant reduction in average myofiber CSA | normalized wet weight of tibialis anterior (TA) (TA, GA and QF muscles [7]; [10]): significant reduction in normalized wet weight | average myofiber CSA (TA, GA, QF) (TA, GA and QF muscles [7]; [11]): significantly greater than the vehicle treated group | normalized muscle weights (TA, GA, QF) (TA, GA and QF muscles [7]; [11]): no difference between the vehicle and WFA treated groups
